Laboratory results taken from PMC5793070, “Bacillibactin and Bacillomycin Analogues with Cytotoxicities against Human Cancer Cell Lines from Marine Bacillus sp. PKU-MA00093 and PKU-MA00092” (Marine Drugs, 2018).
Like-named read-outs stand apart in the source and are kept apart here. Numbered stars: 1 amine (or outer) side, 2 acyl side, 3 side chain; on linkers, the order of the positions; unused ones are H or OH. Square brackets hold non-standard residues; d marks the D form. Peptide text beside a SMILES is read from it. Hexadecanoyl(3R-amino) = CCCCCCCCCCCCC[C@H](CC(=O)[*:2])N[*:1]; X1 = CCC(C)CCCCCCCCCC[C@H](CC(=O)[*:2])N[*:1]; X3 = CC(C)CCCCCCCCCC[C@H](CC(=O)[*:2])N[*:1]

Columns and labels:
[1] = test system: breast cancer cell line MCF7; experiment: MTT cytotoxicity assay against MCF7
Procedure: (§1) Two human cancer cell lines, liver cancer cell line HepG2, and breast cancer cell line MCF7, were used in the assays.
(§2) HepG2 and MCF7 cell lines were purchased from Peking Union Medical College, Cell Bank (Beijing, China). In this study, the cells were grown in Dulbecco’s modified Eagle’s medium (Hyclone, Waltham, MA, USA), supplemented with 10% fetal bovine serum (FBS, PAN Biotech, Aidenbach, Germany), penicillin (100 U/mL), and streptomycin (100 µg/mL) in a humidified incubator containing 95% air and 5% CO2 at 37 °C. Cell viability was detected by MTT colorimetric assay. Briefly, the cells were treated with different concentrations of compounds (in DMSO stock) for 48 h, with taxol as the positive control. Then, culture supernatants were replaced with medium containing 0.5 mg/mL MTT for 4 h. The supernatant was removed and 100 μL of dimethyl sulfoxide was added. Absorbance was detected at 550 nm and cell viability was expressed as the mean percentage of the absorbance in treated vs. control cells. Different concentrations of compounds ranging from 0.1 to 40 µM were tested and each of the concentration was tested in parallel triplicate. Six concentration points in the slope region were used in the calculation of IC50 values. The IC50 values were calculated from the concentration–response curves that were generated by nonlinear regression with Graph Pad Prism 5 software (Graph Pad Software, Inc., San Diego, CA, USA).

[2] = test system: liver cancer cell line HepG2; experiment: MTT cytotoxicity assay against HepG2
Procedure: as §1, §2

[3] = test system: human cancer cell line HCT-15; conditions: lipopeptide proposed as bacillomycin D only based on LC-MS analysis; result in words; cited from earlier work
Procedure: (§3) Compounds 1–10 were tested for their antitumor activities.

[4] = test system: human cancer cell line A498; conditions: lipopeptide proposed as bacillomycin D only based on LC-MS analysis; result in words; cited from earlier work
Procedure: as §3

[5] = test system: human cancer cell line A549; conditions: lipopeptide proposed as bacillomycin D only based on LC-MS analysis; result in words; cited from earlier work
Procedure: as §3

## CCCCCCCCCCCCC[C@@H]1CC(=O)N[C@@H](CC(N)=O)C(=O)N[C@H](Cc2ccc(O)cc2)C(=O)N[C@H](CC(N)=O)C(=O)N2CCC[C@H]2C(=O)N[C@@H](CCC(=O)O)C(=O)N[C@H](CO)C(=O)N[C@@H]([C@@H](C)O)C(=O)N1 [Compound 9, C16 bacillomycin D] (cyclo(E[dS]T[Hexadecanoyl(3R-amino)]N[dY][dN]P))
[1]; human, 48 h
  IC50: 3.3 ± 0.1 µM
[2]; human, 48 h
  IC50: 4.9 ± 0.2 µM

## bacillomycin D [Compound 5]
[1]; MCF7, at the concentration of 10 µM, MTT, 48 h, described as no cytotoxicities
  inhibition rate, MCF7: below 20%
[2]; HepG2, at the concentration of 10 µM, MTT, 48 h, described as no cytotoxicities
  inhibition rate, HepG2: below 20%
[3]
  inhibitory activities against HCT-15: inhibitory activities
[4]
  inhibitory activities against A498: inhibitory activities
[5]
  inhibitory activities against A549: inhibitory activities

## CC(C)CCCCCCCCCC[C@@H]1CC(=O)N[C@@H](CC(N)=O)C(=O)N[C@H](Cc2ccc(O)cc2)C(=O)N[C@H](CC(N)=O)C(=O)N2CCC[C@H]2C(=O)N[C@@H](CCC(=O)O)C(=O)N[C@H](CO)C(=O)N[C@@H]([C@@H](C)O)C(=O)N1 [Compound 8, iso-C16 bacillomycin D] (cyclo(E[dS]T[X3]N[dY][dN]P))
[1]; human, 48 h
  IC50: 2.9 ± 0.1 µM
[2]; human, 48 h
  IC50: 5.1 ± 0.2 µM

## CC(=O)O[C@H]1C(=O)[C@@]2(C)[C@H]([C@H](OC(=O)c3ccccc3)[C@]3(O)C[C@H](OC(=O)[C@H](O)[C@@H](NC(=O)c4ccccc4)c4ccccc4)C(C)=C1C3(C)C)[C@]1(OC(C)=O)CO[C@@H]1C[C@@H]2O [Taxol, reference compound]
[1]; Homo sapiens, MCF7, 48 h, read-out: Cytotoxicity (IC50 Values in µM), MCF7
  IC50: 0.043 ± 0.003 µM
[2]; Homo sapiens, HepG2, 48 h, read-out: Cytotoxicity (IC50 Values in µM), HepG2
  IC50: 0.075 ± 0.004 µM

## CCC(C)CCCCCCCCCC[C@@H]1CC(=O)N[C@@H](CC(N)=O)C(=O)N[C@H](Cc2ccc(O)cc2)C(=O)N[C@H](CC(N)=O)C(=O)N2CCC[C@H]2C(=O)N[C@@H](CCC(=O)O)C(=O)N[C@H](CO)C(=O)N[C@@H]([C@@H](C)O)C(=O)N1 (stereo partly shown) [Compound 10, anteiso-C17 bacillomycin D] (cyclo(E[dS]T[X1]N[dY][dN]P))
[1]; human, 48 h
  IC50: 7.2 ± 0.2 µM
[2]; human, 48 h
  IC50: > 10 µM
